ChEMBL document CHEMBL1122941, “Design, synthesis, and pharmacological activities of 2-substituted 4-phenylquinolines as potential antidepressant drugs” (J Med Chem, 1985)

How the values were obtained:
[1] = Lethal dose was evaluated against reserpine induced hypothermia in mice by intraperitoneal administration; assay type: toxicity, organism-based; conditions: mouse, in vivo, ip
Mus musculus = assay: Effective dose was evaluated for its antagonism to reserpine induced hypothermia in mice by intraperitoneal administration; assay type: functional; conditions: ip
[2] = Therapeutic index as the ratio of LD50 to that of ED50 values.

SMILES	LD50 [1] [mg/kg]	ED50 (Mus musculus) [mg/kg]	therapeutic index (LD50/ED50) [2]
CN(C)CCCSc1cc(-c2ccccc2)c2ccccc2n1.Cl	189	> 50	
Cl.c1ccc(-c2cc(N3CCNCC3)nc3ccccc23)cc1	152	12	12.7
CN(C)CCCNc1cc(-c2ccccc2)c2ccccc2n1.Cl	100	> 50	
CCN(CC)Cc1cc(-c2ccccc2)c2ccccc2n1.Cl	163	> 50	7.76
CN(C)CCCOc1cc(-c2ccccc2)c2ccccc2n1.Cl	200	> 50	
CN(C)CCNc1cc(-c2ccccc2)c2ccccc2n1.Cl	102	26	3.92
CN(C)CCSc1cc(-c2ccccc2)c2ccccc2n1.Cl	198	42.1	4.7
CN(C)CCN(C)c1cc(-c2ccccc2)c2ccccc2n1.Cl	98	27	3.63
CN(C)CCOc1cc(-c2ccccc2)c2ccccc2n1.Cl	202	18.5	10.9
Cl.O=c1n(CCCN2CCN(c3cc(-c4ccccc4)c4ccccc4n3)CC2)nc2ccccn12	390	40.2	9.7
Cl.ClCCCN1CCN(c2cc(-c3ccccc3)c3ccccc3n2)CC1	385	18	21.4
CN(C)CCCN(C)c1cc(-c2ccccc2)c2ccccc2n1.Cl	110	> 50	
CN(C)CCCN1c2ccccc2CCc2ccccc21 [IMIPRAMINE]		21	
c1ccc2nc(N3CCNCC3)ccc2c1 [QUIPAZINE]	135	35.4	
O=c1n(CCCN2CCN(c3cccc(Cl)c3)CC2)nc2ccccn12 [TRAZODONE]		> 50	
